The source of these data is US11491127B2, “Therapeutic use of compounds” (UCL BUSINESS LTD, priority 2010, dated 2022).

A value given as a limit tells only on which side of the number the result lay.

The first data set has as its system phosphoinositide (PIP and PIP2) turnover in Dictyostelium AX2 cells. Put plainly: Dictyostelium phospholipid labelling (PIP and PIP2 turnover). The note with it: Dictyostelium, 0.1 h, read-out: PIP Level (% control), Table 1; 0.5 mM compound, 3 min pre-treatment + 6 min labelling; wild type Dictyostelium. Format: cell-based, Dictyostelium discoideum. The method, then: Phospholipid labelling was quantified using a Typhoon phosphor-imager. Even loading was determined using total lipid stain with copper sulphate.
For the molecule `CC(C)(C)CC(=O)O` [TBA, tert-butylacetic acid], the activity at 500 µM worked out at 21.4%.
`CCCC(C)C(=O)O` (stereo not shown) [2-methylpentanoic acid]: the activity at 500 µM worked out at 59%.
For `CCC(C)CCC(=O)O` (stereo not shown) [4-methylhexanoic acid], the activity at 500 µM turned out to be 68%.
Regarding `O=C(O)C(c1ccccc1)c1ccccc1` [Diphenylacetic acid, 2,2-diphenylacetic acid], the activity at 500 µM is 39%.
On the same count and under the same terms, for `CCCC(C(=O)O)C(C)C` (stereo not shown) [PIA, propylisopropylacetic acid] the value was 15.4%.
With `CCCCC(CC)CCC(=O)O` (stereo not shown) [4-ethyloctanoic acid], the activity at 500 µM was found to be 13.2%.
Take `CCC(C)CC(=O)O` (stereo not shown) [3-methylpentanoic acid]: the activity at 500 µM came out at 64%.
In the case of `CCCCCCC(CO)CCCC` (stereo not shown) [2-butyl-1-octanol], the activity at 500 µM came out at 93%.
For the molecule `CCCCCCCC=O` [octanal], the activity at 500 µM stood at 260%.
On the same count and under the same terms, for `CC(C)CCCC(=O)O` [5-methylhexanoic acid] the value was 7.2%.
With `CCCCCCC(=O)O` [heptanoic acid], the activity at 500 µM was found to be 31.2%.
On the same count and under the same terms, next, `CCCCC(CC)C(=O)O` (stereo not shown) [2-ethylhexanoic acid]: 22.2%; `CC/C=C/C(=O)O` [trans-pent-2-enoic acid]: 50.4%; `CCCOC(=O)C(C)CCC` (stereo not shown) [n-propyl 2-methylvalerate]: 121%.
On to `CCCCCCCCCC(=O)O` [decanoic acid], for which the activity at 500 µM is 12.9%.
Still for that read-out and setting: next, `CCCCCCCCCCCC(=O)O` [dodecanoic acid]: 42%; `CCCCC(=O)OC` [methylvalerate]: 46%; `CCCCCCCCC(CO)CCCCCC` (stereo not shown) [2-hexyl-1-decanol]: 191%.
Same read-out and setting: for `CCCC(CO)CCC` [2-propyl-1-pentanol] the value was 101%.
Turning to `CCCCC=O` [pentanal], the activity at 500 µM is 52%.
Regarding `CCCCCCCCCCCCCCCCC(=O)O` [heptadecanoic acid], the activity at 500 µM was found to be 92.3%.
On the same count and under the same terms, for `CCCCCCCC(=O)O` [octanoic acid] the value was 16.7%; for `CCCCC(C)C(=O)O` (stereo not shown) [2-methylhexanoic acid], 68.1%; for `CCCCCC(C)CCC(=O)O` (stereo not shown) [4-methylnonanoic acid], 45%.
For the molecule `CCCCCC(=O)O` [hexanoic acid], the activity at 500 µM turned out to be 49.2%.
The same measure, in the same setting: next, `CCCCCCCCC=O` [nonanal]: 99%.
Take `CC(CC(=O)O)CC(C)(C)C` (stereo not shown) [3,5,5-trimethylhexanoic acid]: the activity at 500 µM turned out to be 32%.
For `C=CC(C)CC(=O)O` (stereo not shown) [3-methyl-4-pentenoic acid], the activity at 500 µM came to 84%.
Consider `CCCCCCCCC(C)CC(=O)O` (stereo not shown) [3-methylundecanoic acid], for which the activity at 500 µM came to 50%.
As to `CCCCC(=O)O` [pentanoic acid], the activity at 500 µM came to 66.9%.
As to `CC(C)C(C(=O)O)C(C)C` [DIA, diisopropylacetic acid], the activity at 500 µM amounted to 18.6%.
As to `C=CCC(C)(C)C(=O)O` [2,2-dimethyl-4-pentenoic acid], the activity at 500 µM was found to be 60%.
In the case of `NCCCC(=O)O` [GABA, 4-aminobutanoic acid, reference compound], the activity at 500 µM was 60.8%.
For `CCCC(C(N)=O)C(C)C` (stereo not shown) [PID, propylisopropylacetamide], the activity at 500 µM was 59%.

The data set is the same for the next values; noted with them: Dictyostelium, 0.1 h, read-out: PIP level % control, Table 2; VPA and straight chain acids in Dictyostelium.
Take `CCCCCCC(=O)O` [heptanoic acid]: the activity at 500 µM is 31.2%.
As to `CCCCCCCCCC(=O)O` [decanoic acid], the activity at 500 µM worked out at 12.9%.
As for `CCCCCCCCCCCC(=O)O` [dodecanoic acid], the activity at 500 µM came out at 42%.
`CCCCCCCCCCCCCCCCC(=O)O` [heptadecanoic acid]: the activity at 500 µM turned out to be 92.3%.
In the case of `CCCCCCCC(=O)O` [octanoic acid], the activity at 500 µM is 16.7%.
For the molecule `CCCCCC(=O)O` [hexanoic acid], the activity at 500 µM worked out at 49.2%.
The same measure, in the same setting: next, `CCCCC(=O)O` [pentanoic acid]: 66.9%.

Staying with this data set, now noted: Table 1; 0.5 mM compound, 3 min pre-treatment + 6 min labelling; wild type Dictyostelium.
For `CC1(C)C(C(=O)O)C1(C)C` [TMCA, tetramethylcyclopropane carboxylic acid], the “PIP Level (% control)” value worked out at 33.9 % control.
Same read-out and setting: next, `CCC(C)C(CC)C(N)=O` (stereo not shown) [valnocatmide, 2-ethyl-3-methyl valeramide, reference compound]: 64 % control; Tert-butyl amide: 47.6 % control.
With `CC1(C)C(C(N)=O)C1(C)C` [TMCD, tetramethylcyclopropane-carboxamide], the “PIP Level (% control)” value was 72.5 % control.
In the case of `CNC(=O)C1C(C)(C)C1(C)C` [MTMCD, N-methyl-tetramethyl-cyclopropane carboxamide], the “PIP Level (% control)” value was determined as 50.8 % control.
`CCCCC(C)(C)C(=O)O` [2,2-dimethylhexanoic]: the “PIP Level (% control)” value is reported as 29.7 % control.
Regarding 4-hexenoic acid, (cis + trans), the “PIP Level (% control)” value is 58 % control.
Turning to `CCCCCC(C)C(=O)O` (stereo not shown) [2-methylheptanoic], the “PIP Level (% control)” value came to 16.1 % control.

A further data set deals with PTZ-induced epileptiform activity in entorhinal cortex-hippocampal slices. Description: In vitro PTZ acute seizure model, entorhinal cortex-hippocampus slices. It is filed as cell-based, rat. The note with it: PTZ 2 mM, [K+] 6 mM; compounds equimolar 1 mM; 30 to 40 minutes after application. The method, then: The rats (p21) were decapitated after killing by intraperitoneal injection with an overdose of pentobarbitone (500 mg/kg). The brain was removed and placed in ice-cold sucrose solution in mM: NaCl 87, KCl 2.5, MgCl2 7, CaCl2 0.5, NaH2PO4 1.25, sucrose 75, glucose 25, equilibrated with 95% 02/5% CO2 (pH 7.4). Horizontal combined entorhinal cortex-hippocampus slices (350 μm) were prepared with a Leica vibratome (Leica V T1200S) and were then stored in an interface chamber that contained artificial cerebrospinal fluid solution (aCSF) containing in mM: NaCl 119, KCl 2.5, MgSO4 4, CaCl2 4, NaHCO326.2, NaH2PO4 1, glucose 11, and gassed with 95% O2/5% CO2. They were stored for over one hour before being transferred to a submersion recording chamber continually perfused with carbogenated aCSF for recording. Field potential recordings were made by placing glass microelectrodes (˜1-2 MΩ) filled with aCSF solution in stratum radiatum of CA1. Bipolar stimulating electrodes were positioned in the Schaffer collateral/commissural fibre pathway in stratum radiatum to confirm slice viability. In the PTZ acute seizure model, PTZ (2 mM) was added to the perfusate and [K+] was increased to 6 mM in order to induce epileptiform activity (Armand et al., 1998). In the low Mg^2+ acute seizure model, Mg^2+ free aCSF was applied to generate rhythmic short recurrent discharges. Novel anticonvulsants were applied once the frequency and amplitude of the epileptiform discharges were stable over a period of 10 min. Anticonvulsant effects were evaluated by measuring the variation of frequency of the discharges every minute. The data acquired from the 30 to 40 minutes after application novel anticonvulsants were compared by ANOVA followed by post-hoc testing using Tukey test, using SPSS statistical analysis.
As for `CCCCCCC(CCCC)C(=O)O` (stereo not shown) [2-butyloctanoic acid], the “frequency of epileptiform discharges (seizure discharge frequency)” value (shortened to “frequency of epileptiform discharges”) is 5.2±5.0%.
For `CCCCCCCCCC(=O)O` [decanoic acid], the “frequency of epileptiform discharges” value amounted to 0.23±0.23%.
With `CCCCCCC(CCC)C(=O)O` (stereo not shown) [2-propyloctanoic acid], the “frequency of epileptiform discharges” value came to 5.3±3.3%.
Take `CCCCC(=O)O` [pentanoic acid]: the “frequency of epileptiform discharges” value is reported as “not seen”.

The test system of the next data set is release of 3H arachidonic acid / palmitic acid radiolabel from Dictyostelium cells. Put plainly: Fatty acid release (3H radiolabel release from labelled cells). It is filed as cell-based, Dictyostelium discoideum. The note with it: 3H-AA; FIG. 9.
As to `CCCC(C(=O)O)C(C)C` (stereo not shown) [PIA, propylisopropylacetic acid], the “inhibitory effect on radiolabel release” value was “strong”.

Still in this data set, the particulars now being: BEL 80 μM; MAFP 50 μM; BPB 20 μM; cocktail of all three.
For the molecule `O=C1O/C(=C/Br)CCC1c1cccc2ccccc12` (stereo not shown) [BEL, reference compound], the “effect of PLA2 inhibitors on radiolabel release from 3H-AA cells” value is reported as “reduced radiolabel release”.
Take `O=C(CBr)c1ccc(Br)cc1` [BPB, reference compound]: the “effect of PLA2 inhibitors on radiolabel release from 3H-AA cells” value is given as “reduced radiolabel release”.

Still in this data set, the particulars now being: Dictyostelium, 0.5 h; Table 3; 3H-AA labelled cells; 30 min, 0.5 mM treatment; read-out: AA release [% of control].
Regarding `CCCCC(CC)CCC(=O)O` (stereo not shown) [4-ethyloctanoic acid], the activity at 500 µM was 87%.
Regarding `CCCCCCCCCC(=O)O` [decanoic acid], the activity at 500 µM came to 62%.
With `CCCCCCCCCCCC(=O)O` [dodecanoic acid], the activity at 500 µM is 89%.
For `CCCCCCC(CCC)C(=O)O` (stereo not shown) [2-propyloctanoic acid], the activity at 500 µM was found to be 45%.
With `CCCCCCCC(=O)O` [octanoic acid], the activity at 500 µM was 72%.
As to `CCCCCC(C)CCC(=O)O` (stereo not shown) [4-methylnonanoic acid], the activity at 500 µM was found to be 63%.
Take `CCCCCCCCC(CCC)C(=O)O` (stereo not shown) [2-propyl-decanoic acid]: the activity at 500 µM came to 56%.
With `CCCCCCCCC(CC)C(=O)O` (stereo not shown) [2-ethyl-decanoic], the activity at 500 µM amounted to 73%.

Still in this data set, the particulars now being: Table 3; 30 min, 0.5 mM.
Take `CCCCCCC(CCC)C(=O)O` (stereo not shown) [2-propyloctanoic acid]: the “radiolabel release activity relative to control” value is ≤ 45 % of control.

A further data set has as its system uptake of 3H arachidonic acid / palmitic acid into Dictyostelium cells. Description: Fatty acid uptake (3H radiolabel incorporation into cells). Format: cell-based, Dictyostelium discoideum. The note with it: 3H-AA; FIG. 9.
Regarding `CCCC(C(=O)O)C(C)C` (stereo not shown) [PIA, propylisopropylacetic acid], the “effect on 3H-AA uptake compared with VPA” value is “elevated uptake”.

Staying with this data set, now noted: latrunculin 10 μM.
With latrunculin, the “effect on VPA-induced AA uptake” value is recorded as “failed to attenuate” and the “fatty acid uptake in control cells” value was “decreased uptake”.

Test system in a further data set: not given
Experiment: not given
The note with it: Table 2; cited from earlier work.
The pKa is the pH at which an ionisable group is half protonated. In the case of `CCCCCCC(=O)O` [heptanoic acid], the pKa is 4.89.
With `CCCCCCCCCCCC(=O)O` [dodecanoic acid], the pKa was 4.85.
`CCCCCCCCCCCCCCCCC(=O)O` [heptadecanoic acid]: the pKa is 4.78.
On to `CCCCCCCC(=O)O` [octanoic acid], for which the pKa was 4.89.
As for `CCCCC(=O)O` [pentanoic acid], the pKa is 4.84.
